The IC50 is the concentration needed to halve the response being measured.

For one assay, the system named is MOLM14 cells. Briefly: Proliferation (spheroid) assay, MOLM14. It counts as cell-based. Particulars: Homo sapiens, MOLM-14, 192 h, 8 days; read-out: spheroid assay_MOLM14 IC50. As for the experimental part:
The anti-proliferative effect of menin/MLL protein/protein interaction inhibitor test compounds was assessed in human leukemia cell lines. The cell line MOLM14 harbors a MLL translocation and expresses the MLL fusion protein MLL-AF9, respectively, as well as the wildtype protein from the second allele. OCI-AML3 cells that carry the NPM1c gene mutation were also tested. […] KO-52 was used as a control cell line containing two MLL (KMT2A) wildtype alleles in order to exclude compounds that display general cytotoxic effects.
MOLM14 cells were cultured in RPMI-1640 (Sigma Aldrich) supplemented with 10% heat-inactivated fetal bovine serum (HyClone), 2 mM L-glutamine (Sigma Aldrich) and 50 μg/ml gentamycin (Gibco). KO-52 and OCI-AML3 cell lines were propagated in alpha-MEM (Sigma Aldrich) supplemented with 20% heat-inactivated fetal bovine serum (HyClone), 2 mM L-glutamine (Sigma Aldrich) and 50 μg/ml gentamycin (Gibco).
In order to assess the anti-proliferative effects, 200 MOLM14 cells, […] or 300 KO-52 cells were seeded in 200 μl media per well in 96-well round bottom, ultra-low attachment plates (Costar, catalogue number 7007). Cell seeding numbers were chosen based on growth curves to ensure linear growth throughout the experiment. Test compounds were added at different concentrations and the DMSO content was normalized to 0.3%. Cells were incubated for 8 days at 37° C. and 5% CO2. Spheroid like growth was measured in real-time by live-cell imaging (IncuCyteZOOM, Essenbio, 4× objective) acquiring images at day 8. Confluence (%) as a measure of spheroid size was determined using an integrated analysis tool.
In order to determine the effect of the test compounds over time, the confluence in each well as a measure of spheroid size, was calculated. Confluence of the highest dose of a reference compound was used as baseline for the LC (Low control) and the confluence of DMSO treated cells was used as 0% cytotoxicity (High Control, HC).
Absolute IC50 values were calculated as percent change in confluence as follows: • LC=Low Control: cells treated with e.g. 1 μM of the cytotoxic agent staurosporin, or e.g. cells treated with a high concentration of an alternative reference compound • HC═High Control: Mean confluence (%) (DMSO treated cells) • % Effect=100−(100*(Sample-LC)/(HC-LC))
GraphPad Prism (version 7.00) was used to calculate the ICso. Dose-response equation was used for the plot of % Effect vs Log10 compound concentration with a variable slope and fixing the maximum to 100% and the minimum to 0%.

A further assay concerns MEIS1 mRNA. Briefly: MEIS1 mRNA expression assay (Quantigene Singleplex) in MOLM14 cells. It counts as cell-based. Conditions: Homo sapiens, MOLM-14, 48 h. How it is done:
2b) MEIS1 mRNA Expression Assay
MEIS1 mRNA expression upon treatment of compound was examined by Quantigene Singleplex assay (Thermo Fisher Scientific). This technology allows for direct quantification of mRNA targets using probes hybridizing to defined target sequences of interest and the signal is detected using a Multimode plate reader Envision (PerkinElmer). The MOLM14 cell line was used for this experiment. Cells were plated in 96-well plates at 3,750 cells/well in the presence of increasing concentrations of compounds. After incubation of 48 hours with compounds, cells were lysed in lysis buffer and incubated for 45 minutes at 55° C. Cell lysates were mixed with human MEIS1 specific capture probe or human RPL28 (Ribosomal Protein L28) specific probe as a normalization control, as well as blocking probes. Cell lysates were then transferred to the custom assay hybridization plate (Thermo Fisher Scientific) and incubated for 18 to 22 hours at 55° C. Subsequently, plates were washed to remove unbound materials followed by sequential addition of preamplifiers, amplifiers, and label probe. Signals (=gene counts) were measured with a Multimode plate reader Envision. IC50s were calculated by dose-response modelling using appropriate software. For all non-housekeeper genes response equal counts corrected for background and relative expression. For each sample, each test gene signal (background subtracted) was divided by the normalization gene signal (RPL28: background subtracted). Fold changes were calculated by dividing the normalized values for the treated samples by the normalized values for the DMSO treated sample. Fold changes of each target gene were used for the calculation of IC50s.

Assay [1] deals with MOLM-13 tumors in NSG mice. Briefly: Efficacy (survival) in disseminated MOLM-13 (KMT2A-rearranged) IV model in NSG mice. Conditions: NSG mice with established MOLM-13 tumors, 4 weeks treatment; azacitidine 2 mg/kg ip QD × 7, venetoclax 100 mg/kg po QD × 28, Compound 51 2 mg/kg po QD × 28 (Table 6). It counts as in vivo. As for the experimental part:
4) Efficacy of Menin-KMT2A Inhibitor in Combination with Venetoclax, and Optionally, Azacitidine, in MOLM-13 (KMT2A-Rearranged) IV Model in NSG Mice
Compound 51 was formulated in purified pyrogen-free deionized water, pH 4.0 and prepared to reach a total volume of 8 mL/kg. Doses were adjusted by individual body weight each day. Working stocks of Compound 51 were prepared once per week for each study and stored at 25° C.
Female NSG (NOD.Cg-Prkdc^scid Il2rg^tm1Wj1/SzJ) mice were used when they were approximately 6 to 8 weeks of age and weighed approximately 25 g. All animals could acclimate and recover from any shipping-related stress for a minimum of 7 days prior to experimental use. Autoclaved water and irradiated food were provided ad libitum, and the animals were maintained on a 12 hour light and dark cycle. Cages, bedding, and water bottles were autoclaved before use and changed weekly. The tissue culture and cell injection reagents are summarized below in Table 5.
Tumor Model and Cell Culture Method
Human AML MOLM-13 cells were cultured at 37° C., 5% CO2 in the indicated complete culture media (RPMI 1640+10% HI-FBS+2 mM L-glutamine+50 μg/ml Gentamycin). Cells were harvested while in logarithmic growth and resuspended in cold (4° C.) Roswell Park Memorial Institute (RPMI) 1640 in serum-free medium.
For the disseminated MOLM-13 model, each mouse received 1×10^5 cells via IV injection in a total volume of 0.2 mL using a 26-gauge needle.
Day 0 is the day of tumor cell implantation and study initiation.
Mice bearing IV MOLM-13 xenograft tumors were randomly assigned to treatment groups 5 days post-tumor cell engraftment.
Animals were monitored daily for clinical signs related to either compound toxicity or tumor burden (i.e., hind limb paralysis, lethargy, etc.).
For survival assessment, results were plotted as the percentage survival against days post tumor implant. Negative clinical signs and/or ≥20% body weight loss was used as a surrogate endpoint for death. Median survival was determined utilizing Kaplan-Meier survival analysis. The percent increased life span (ILS) was calculated as: ((median survival day of treated group−median survival day of control group)/median survival day of control group)×100. Animals failing to reach the surrogate endpoint due to adverse clinical signs or death unrelated to treatment were censored for the survival assessment. As defined by NCI criteria, ≅25% ILS is considered biologically significant. (Johnson J I et al. Br J Cancer. 2001. 84(10), 1424-1431).
Survival and body weight data were graphically represented utilizing Prism (Version 9). Statistical significance for body weights was evaluated as described above. Statistical significance was evaluated for Kaplan-Meier survival plots comparing therapeutic treatment group vs. appropriate vehicle-treated control using log-rank (Mantel-Cox) test in R software version 3.4.2. Differences between groups were considered significant when the p value was ≤0.05.
The disseminated MOLM-13 model described above was used to examine the efficacy of menin-KMT2A-inhibitor (formulated as described above) in combination with venetoclax (formulated in polyethylene glycol [PEG]-400/Phosal50/dimethyl sulfoxide [DMSO]), and optionally azacitidine (formulated in 0.9% saline). Treatment with compound(s) was initiated 5 days after cell injection. Compound 51 was given in the morning, and venetoclax or azacitidine was given in the afternoon, approximately 6-8 hr apart.

For the next assay, the target named is T1, Menin/MLL (Homo sapiens, UniProt O00255, T541A).
T1 construct: Menin (a.a 1-610-6×his tag, 2.3 mg/mL in 20 mM Hepes)
T1 sequence (O00255 with tags, fused parts or gaps T541A): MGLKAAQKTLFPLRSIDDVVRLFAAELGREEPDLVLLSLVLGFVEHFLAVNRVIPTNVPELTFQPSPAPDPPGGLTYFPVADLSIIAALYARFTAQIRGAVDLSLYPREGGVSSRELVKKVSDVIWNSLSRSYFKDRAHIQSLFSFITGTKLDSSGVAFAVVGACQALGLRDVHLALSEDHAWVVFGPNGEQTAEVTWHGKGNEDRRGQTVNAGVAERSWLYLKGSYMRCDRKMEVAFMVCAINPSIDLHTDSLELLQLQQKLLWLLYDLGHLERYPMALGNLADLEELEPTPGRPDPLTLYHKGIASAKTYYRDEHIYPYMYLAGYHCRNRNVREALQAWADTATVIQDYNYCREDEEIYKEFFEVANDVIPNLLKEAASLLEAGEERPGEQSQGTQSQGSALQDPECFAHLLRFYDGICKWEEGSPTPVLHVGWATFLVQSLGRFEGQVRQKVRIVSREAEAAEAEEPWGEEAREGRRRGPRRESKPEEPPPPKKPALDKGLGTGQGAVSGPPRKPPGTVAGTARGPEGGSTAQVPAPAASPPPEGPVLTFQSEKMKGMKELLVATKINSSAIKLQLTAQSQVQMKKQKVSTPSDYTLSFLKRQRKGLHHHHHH
Briefly: Menin/MLL homogenous time-resolved fluorescence (HTRF) assay. Format: binding. Particulars: 30 min incubation of test compound with terbium chelate-labeled menin. As for the experimental part:
1) Menin/MLL Homogenous Time-Resolved Fluorescence (HTRF) Assay
To an untreated, white 384-well microtiter plate was added 40 nL 200× test compound in DMSO and 4 μL 2× terbium chelate-labeled menin (vide infra for preparation) in assay buffer (40 mM Tris.HCl, pH 7.5, 50 mM NaCl, 1 mM DTT (dithiothreitol) and 0.05% Pluronic F-127). After incubation of test compound and terbium chelate-labeled menin for 30 min at ambient temperature, 4 μL 2×FITC-MBM1 peptide (FITC-β-alanine-[…]-NH2) (“FITC” means fluorescein isothiocyanate) in assay buffer was added, the microtiter plate centrifuged at 1000 rpm for 1 min and the assay mixtures incubated for 15 min at ambient temperature. The relative amount of menin-FITC-MBM1 complex present in an assay mixture is determined by measuring the homogenous time-resolved fluorescence (HTRF) of the terbium/FITC donor/acceptor fluorphore pair using an EnVision microplate reader (ex. 337 nm/terbium em. 490 nm/FITC em. 520 nm) at ambient temperature. The degree of fluorescence resonance energy transfer (the HTRF value) is expressed as the ratio of the fluorescence emission intensities of the FITC and terbium fluorophores (F^em 520 nm/F^em 490 nm). […]
Compound potencies were determined by first calculating % inhibition at each compound concentration according to equation 1: […]
(Time-resolved FRET reads energy transfer from a long-lived donor to a nearby acceptor.)

Take `CNC(=O)N1CCC(CN2CC[C@H](Cc3cn(-c4ccc(F)cc4C(=O)N(C)C(C)C)c4cncc(C)c34)C2)CC1` (single isomer, unassigned) [Compound 101]: the half-inhibitory concentration (IC50) in the assay on MOLM14 cells is 41 nM; in the assay with MEIS1 mRNA it was 7 nM.

Consider `COCC(=O)N1CCC(C(C)N2CCC(Cc3cn(-c4ccc(F)cc4C(=O)N(C)C(C)C)c4cncc(C)c34)C2)CC1` (single isomer, unassigned) [Compound 117a], for which the IC50 in the assay with MOLM14 cells turned out to be 5 nM; in the assay with MEIS1 mRNA it was 7 nM. Turning to `Nc1ncn([C@@H]2O[C@H](CO)[C@@H](O)[C@H]2O)c(=O)n1` [Azacitidine, azacitidine, reference compound], in assay [1], the “% ILS (increased life span)” value amounted to 37%. As to `CC(=O)N1CCC(N2CC[C@H](Cc3cn(-c4ccc(F)cc4C(=O)N(C)C(C)C)c4cncc(C)c34)C2)CC1` [Compound 156], the results for the concentration for half-maximal inhibition (IC50) with MOLM14 cells and in the assay on MEIS1 mRNA were 42 nM and 187 nM, respectively. As for `Cc1cncc2c1c(CC1CN(CC3CCNC(=O)C3)C1)cn2-c1ccc(F)cc1C(=O)N(C)C(C)C` (stereo not shown) [Compound 196], the IC50 against Menin/MLL is 0.19 nM. Consider `CC(=O)N1CC2CC(N3CC(Cc4cn(-c5ccc(F)cc5C(=O)N(C)C(C)C)c5cncc(C)c45)C3)CC2C1` (stereo not shown) [Compound 294a], for which the midpoint of inhibition at Menin/MLL, the IC50, lay at 0.237 nM.

For the compound `CC1(C)CCC(CN2CCN(c3ccc(C(=O)NS(=O)(=O)c4ccc(NCC5CCOCC5)c([N+](=O)[O-])c4)c(Oc4cnc5[nH]ccc5c4)c3)CC2)=C(c2ccc(Cl)cc2)C1` [Venetoclax, venetoclax, reference compound], the “% ILS (increased life span)” value in assay [1] came out at 11%.

For the origin of these results see patent publication US20260191838A1, “COMBINATIONS COMPRISING A MENIN-MLL INHIBITOR AND A BCL-2 INHIBITOR” (JANSSEN PHARMACEUTICA NV, priority 2022, published 2026).
